Data taken from patent publication US9999613B2, “2H-chromene derivatives as analgesic agents” (OBSHESTVO S OGRANICHENNOI OTVETSVENNOSTJU “LEOFORS”, priority 2014, dated 2018).
Marks after values point to notes of the source that are not given here.

Tests used:
outbred mice [1] = experiment: acetic acid induced writhing test (visceral pain model); format: in vivo
Procedure: (§1) Analgesic activity of compounds of general formula 1 was studied in the model of visceral pain <<acetic acid induced writhing test>> and thermal irritation test <<hot plate>> in white outbred mice of body mass 20-22 g in groups of 8 animals each after single administration in 1÷20 mg/kg doses.
Acetic acid induced writhing test was performed by intraperitoneal administration of 0.1 ml of 0.75% acetic acid to an animal. Activity was assessed by the quantity of writhing movements during 3 min.
Tests were carried out in outbred male mice with body mass 22-25 g. Experimental groups were formed, with 8 animals in each. <<Acetic writhes>> were produced by intraperitoneal administration of 0.75% acetic acid, 0.1 ml per animal. Test compounds were administered once intragastrically an hour before acetic acid administration. Animals that received only acetic acid were used as control. Activity was assessed by the quantity of writhes during 3 min.

outbred mice [2] = experiment: hot plate test (thermal irritation); format: in vivo
Procedure: as §1
Hot plate test characterizes thermal stimulus. The animals were placed on a copper plate, T=54° C. The effect was assessed by the duration of stay of the animal on the hot plate before the first vocalization.
Tests were carried out in outbred male mice of body mass 22-25 g. Experimental groups were formed, with 8 animals in each. The animals were placed on a copper hot plate, T=54° C. The effects were assessed by the duration of animal stay on the hot plate before the first <>, in seconds.
Test compounds were administered once intragastrically an hour before the test. Control animals received the corresponding solvent.

[3] = known drugs, data from ref. [2]; cited from earlier work
[4] = known drugs, data from ref. [2]; cited from earlier work; remark: listed apart in the source
white outbred mice = experiment: acute toxicity, single intragastric administration, Kerber method
outbred mice [5] = experiment: acetic acid induced writhing test (visceral pain model); format: in vivo; conditions: 0.5 mg/kg, intragastric
outbred mice [6] = experiment: hot plate test (thermal irritation); format: in vivo; conditions: 0.5 mg/kg, intragastric
[7] = 10 mg/kg, intragastric, (control − exp)/control · 100%
[8] = 10 mg/kg, once intragastrically 1 h before 0.75% acetic acid i.p., writhes during 3 min
[9] = 10 mg/kg, once intragastrically 1 h before test, plate 54° C, time to first vocalization
[10] = 10 mg/kg, intragastric, (exp − control)/control · 100%
[11] = 1 mg/kg dose, compared with sodium diclofenac 10 mg/kg

In the case of `Cc1ccc(C2CC(C)(O)C3CCC(C)CC3O2)s1` (stereo not shown) [Compound 1c, 4,7-dimethyl-2-(5-methylthiophene-2-yl)octahydro-2H-chromene-4-ol], the “Pain reduction, %” value (outbred mice [1]; [7]) is reported as 39*** %, the “Writhes, quantity (Agent)” value (outbred mice [1]; [8]) is reported as 6.6 ± 0.5 and the “Hot plate, sec. (Agent)” value (outbred mice [2]; [9]) is reported as 17.4 ± 2.4 s.
With `Cc1ccsc1C1CC(C)(O)C2CCC(C)CC2O1` (stereo not shown) [Compound 1b, 4,7-dimethyl-2-(3-methylthiophene-2-yl)octahydro-2H-chromene-4-ol] the “Pain reduction, %” value (outbred mice [1]; [7]) was 36*** %, the “Writhes, quantity (Agent)” value (outbred mice [1]; [8]) was 7.0 ± 0.6 and the “Hot plate, sec. (Agent)” value (outbred mice [2]; [9]) was 12.8 ± 1.7 s.
For `O=C(O)Cc1ccccc1Nc1c(Cl)cccc1Cl` [Sodium diclofenac, reference compound], the “ED50 in acetic acid induced writhing test” value (from here on “ED50”) [3] is given as 5 mg/kg, the “Pain reduction, %” value (outbred mice [1]; [7]) is given as 50*** % and the “Writhes, quantity (Agent)” value (outbred mice [1]; [8]) is given as 5.0 ± 1.1. The “Protection, %” value (outbred mice [2]; [10]) was 62** % and the “Hot plate, sec. (Agent)” value (outbred mice [2]; [9]) was 15.6 ± 2.4 s.
For `Cc1c(N(C)CS(=O)(=O)O)c(=O)n(-c2ccccc2)n1C` [Metamizole], the “ED50” value [3] is listed as 55 mg/kg and the “LD50 (acute toxicity)” value [4] is listed as 3300 mg/kg.
In the case of `CC1CCC2C(C1)OC(c1ccc(Br)s1)CC2(C)O` (stereo not shown) [Compound 1e, 4,7-dimethyl-2-(5-bromothiophene-2-yl)octahydro-2H-chromene-4-ol], the “Pain reduction, %” value (outbred mice [1]; [7]) is reported as 34* %, the “Writhes, quantity (Agent)” value (outbred mice [1]; [8]) is reported as 6.3 ± 1.2 and the “Protection, %” value (outbred mice [2]; [10]) is reported as 18%. The “Hot plate, sec. (Agent)” value (outbred mice [2]; [9]) was 11.6 ± 1.0 s.
With `CC1CCC2C(C1)OC(c1cccs1)CC2(C)O` (stereo not shown) [Compound 1a, 4,7-dimethyl-2-(thiophene-2-yl)octahydro-2H-chromene-4-ol] the “acute toxicity classification (in words)” value (white outbred mice) was “moderately toxic”, the “analgesic activity in acetic acid induced writhing test (in words)” value (outbred mice [1]; [11]) was “potent analgesic activity” and the “Pain reduction, %” value (outbred mice [1]; 1 mg/kg, intragastric) was 71%. The “Writhes, quantity (Agent)” value (outbred mice [1]; 1 mg/kg, intragastric) was 2.4 ± 0.8, the “Pain reduction, %” value (outbred mice [1]; 5 mg/kg, intragastric) was 42% and the “Writhes, quantity (Agent)” value (outbred mice [1]; 5 mg/kg, intragastric) was 4.9 ± 1.0. The “analgesic activity in acetic acid induced writhing test (in words)” value (outbred mice [1]; 10 mg/kg dose) was “more effective than sodium diclofenac”, the “Pain reduction, %” value (outbred mice [1]; [7]) was 55% and the “Writhes, quantity (Agent)” value (outbred mice [1]; [8]) was 4.3 ± 1.1. For the same molecule, the “Pain reduction, %” value (outbred mice [1]; 20 mg/kg, intragastric) was 25%, the “Writhes, quantity (Agent)” value (outbred mice [1]; 20 mg/kg, intragastric) was 8.3 ± 0.5 and the “Pain reduction, %” value (outbred mice [5]) was 27%. For the same molecule, the “Writhes, quantity (Agent)” value (outbred mice [5]) was 7.4 ± 1.3, the “analgesic activity in hot plate test (in words)” value (outbred mice [2]; [11]) was “potent analgesic activity” and the “Hot plate, sec. (Agent)” value (outbred mice [2]; 1 mg/kg, intragastric) was 16.5 ± 1.9 s. For the same molecule, the “Protection, %” value (outbred mice [2]; 1 mg/kg, intragastric) was 59%, the “Hot plate, sec. (Agent)” value (outbred mice [2]; 5 mg/kg, intragastric) was 16.3 ± 1.6 s and the “Protection, %” value (outbred mice [2]; 5 mg/kg, intragastric) was 57%. For the same molecule, the “analgesic activity in hot plate test (in words)” value (outbred mice [2]; 10 mg/kg dose) was “Reliable analgesic activity”, the “Protection, %” value (outbred mice [2]; [10]) was 34% and the “Hot plate, sec. (Agent)” value (outbred mice [2]; [9]) was 13.1 ± 1.2 s. The “Hot plate, sec. (Agent)” value (outbred mice [2]; 20 mg/kg, intragastric) was 16.0 ± 2.6 s, the “Protection, %” value (outbred mice [2]; 20 mg/kg, intragastric) was 50% and the “Hot plate, sec. (Agent)” value (outbred mice [6]) was 20.3 ± 2.2 s. For the same molecule, the “Protection, %” value (outbred mice [6]) was 28%.
For `CC1CCC2C(C1)OC(c1ccc([N+](=O)[O-])s1)CC2(C)O` (stereo not shown) [Compound 1f, 4,7-dimethyl-2-(5-nitrothiophene-2-yl)octahydro-2H-chromene-4-ol], the “Pain reduction, %” value (outbred mice [1]; [7]) was 32* %, the “Writhes, quantity (Agent)” value (outbred mice [1]; [8]) was 7.5 ± 1.2 and the “Protection, %” value (outbred mice [2]; [10]) was 20%. The “Hot plate, sec. (Agent)” value (outbred mice [2]; [9]) was 14.5 ± 1.6 s.
With `CC1CCC2C(C1)OC(c1cc(Br)cs1)CC2(C)O` (stereo not shown) [Compound 1d, 4,7-dimethyl-2-(4-bromothiophene-2-yl)octahydro-2H-chromene-4-ol] the “analgesic activity in acetic acid induced writhing test (in words)” value (outbred mice [1]; 10 mg/kg dose) was “more effective than sodium diclofenac”, the “Pain reduction, %” value (outbred mice [1]; [7]) was 63** % and the “Writhes, quantity (Agent)” value (outbred mice [1]; [8]) was 3.6 ± 1.5. For the same molecule, the “Protection, %” value (outbred mice [2]; [10]) was 39% and the “Hot plate, sec. (Agent)” value (outbred mice [2]; [9]) was 13.6 ± 1.7 s.
For `CC(=O)Oc1ccccc1C(=O)O` [Acetylsalicylic acid], the “ED50” value [3] is listed as 155 mg/kg.
